≈ marks a conversion by molar mass, not a printed value.
Tests used:
[1] = Toxicity in BALB/c mouse assessed as reduction in ALP level at 800 mg/kg, po measured at 14 days; format: organism-based; conditions: in vivo, 336 h, time 14 day
[2] = biological target: T1, Serine/threonine-protein kinase PknB (Mycobacterium tuberculosis) (UniProt P9WI81); assay: Binding affinity to Mycobacterium tuberculosis PknB assessed as gibbs free energy at 600 uM by ITC analysis
T1 sequence (whole entry): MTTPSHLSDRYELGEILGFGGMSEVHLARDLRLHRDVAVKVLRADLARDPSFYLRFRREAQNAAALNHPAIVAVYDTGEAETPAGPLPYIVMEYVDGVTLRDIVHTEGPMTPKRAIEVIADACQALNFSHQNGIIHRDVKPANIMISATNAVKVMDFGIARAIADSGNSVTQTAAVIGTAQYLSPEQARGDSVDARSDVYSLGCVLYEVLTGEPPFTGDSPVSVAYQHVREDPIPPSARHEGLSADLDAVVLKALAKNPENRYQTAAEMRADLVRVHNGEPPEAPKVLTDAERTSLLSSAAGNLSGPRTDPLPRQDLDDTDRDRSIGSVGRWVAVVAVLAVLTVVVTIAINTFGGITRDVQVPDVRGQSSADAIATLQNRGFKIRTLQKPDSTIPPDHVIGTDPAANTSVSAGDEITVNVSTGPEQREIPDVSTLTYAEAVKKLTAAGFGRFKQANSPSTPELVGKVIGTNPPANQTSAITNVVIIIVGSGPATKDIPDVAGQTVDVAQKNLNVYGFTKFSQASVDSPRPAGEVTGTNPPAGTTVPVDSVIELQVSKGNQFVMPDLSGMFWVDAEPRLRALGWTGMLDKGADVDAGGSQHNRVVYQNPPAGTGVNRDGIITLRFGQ

[3] = Apparent clearance during terminal phase in Sprague-Dawley rat at 5 mg/kg, iv measured for 24 hrs by LC-MS analysis; format: ADME, organism-based; conditions: in vivo
Escherichia coli = assay: Antibacterial activity against Escherichia coli assessed as inhibition of bacterial growth; format: functional
[4] = biological target: T2, Dihydrofolate reductase (Mycobacterium tuberculosis) (UniProt P9WNX1); assay: Inhibition of Mycobacterium tuberculosis DHFR at 100 uM relative to control
T2 sequence (whole entry): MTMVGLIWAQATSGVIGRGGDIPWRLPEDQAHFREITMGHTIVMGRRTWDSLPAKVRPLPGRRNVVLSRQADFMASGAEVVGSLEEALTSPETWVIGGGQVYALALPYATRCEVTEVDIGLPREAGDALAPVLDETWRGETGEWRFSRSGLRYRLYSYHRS

[5] = tested on: Mycobacterium tuberculosis; assay: Antitubercular activity against marker free autoluminescent Mycobacterium tuberculosis H37Ra assessed as reduction in relative light unit measured once a day for 6 days; format: functional; conditions: 144 h, time 6 day
[6] = AUC(0 to t) in Sprague-Dawley rat at 15 mg/kg, po measured for 24 hrs by LC-MS analysis; format: ADME, organism-based; set-up: dose 15 mg/kg, time 24 hrs, route po; conditions: in vivo
[7] = biological target: T2, Dihydrofolate reductase (Mycobacterium tuberculosis); assay: Inhibition of Mycobacterium tuberculosis DHFR at 10 uM relative to control
[8] = Toxicity in BALB/c mouse assessed as reduction in LDH level at 800 mg/kg, po measured at 14 days; format: organism-based; conditions: in vivo, 336 h, time 14 day
[9] = tested on: Mycobacterium tuberculosis; assay: Antibacterial activity against Mycobacterium tuberculosis H37Rv assessed as inhibition of bacterial growth incubated for 6 days by microplate alamar blue assay; format: functional; conditions: 144 h, time 6 day
[10] = Cmax in Sprague-Dawley rat at 5 mg/kg, iv measured for 24 hrs by LC-MS analysis; format: ADME, organism-based; set-up: time 24 hrs, dose 5 mg/kg, route iv; conditions: in vivo
[11] = Toxicity in BALB/c mouse assessed as body weight loss at 800 mg/kg, po measured for 2 weeks; format: organism-based; conditions: in vivo, 336 h
[12] = AUC(0 to t) in Sprague-Dawley rat at 5 mg/kg, iv measured for 24 hrs by LC-MS analysis; format: ADME, organism-based; set-up: dose 5 mg/kg, time 24 hrs, route iv; conditions: in vivo
[13] = Toxicity in BALB/c mouse assessed as mouse death at 800 mg/kg, po measured for 2 weeks; format: organism-based; conditions: in vivo, 336 h
[14] = tested on: Mycobacterium tuberculosis; assay: Antibacterial activity against Mycobacterium tuberculosis clinical isolate K12 assessed as inhibition of bacterial growth incubated for 6 days by microplate alamar blue assay; format: functional; conditions: K12, 144 h, time 6 day
[15] = Cmax in Sprague-Dawley rat at 15 mg/kg, po measured for 24 hrs by LC-MS analysis; format: ADME, organism-based; set-up: dose 15 mg/kg, time 24 hrs, route po; conditions: in vivo
[16] = Toxicity in BALB/c mouse assessed as increase in AST level at 800 mg/kg, po measured at 14 days; format: organism-based; conditions: in vivo, 336 h, time 14 day
[17] = Tmax in Sprague-Dawley rat at 15 mg/kg, po measured for 24 hrs by LC-MS analysis; format: ADME, organism-based; conditions: in vivo
[18] = Toxicity in BALB/c mouse assessed as increase in uric acid level at 800 mg/kg, po measured at 14 days; format: organism-based; conditions: in vivo, 336 h, time 14 day
[19] = Half life in Sprague-Dawley rat at 5 mg/kg, iv measured for 24 hrs by LC-MS analysis; format: ADME, organism-based; conditions: in vivo
[20] = tested on: Mycobacterium tuberculosis; assay: Antibacterial activity against Mycobacterium tuberculosis clinical isolate K5 assessed as inhibition of bacterial growth incubated for 6 days by microplate alamar blue assay; format: functional; conditions: K5, 144 h, time 6 day
[21] = Cytotoxicity against human HepG2 cells assessed as inhibition of cell growth incubated for 48 hrs by MTT assay; format: toxicity, cell-based
[22] = biological target: T1, Serine/threonine-protein kinase PknB (Mycobacterium tuberculosis); assay: Binding affinity to Mycobacterium tuberculosis PknB assessed as thermal stability by measuring change in melting temperature at 100 uM incubated for 0.5 hrs by SYPRO orange dye based differential scanning fluorimetry analysis
[23] = biological target: T1, Serine/threonine-protein kinase PknB (Mycobacterium tuberculosis); assay: Binding affinity to Mycobacterium tuberculosis PknB assessed as thermal stability by measuring melting temperature at 100 uM incubated for 0.5 hrs by SYPRO orange dye based differential scanning fluorimetry analysis (reference value: 59 degreeC)
Staphylococcus aureus = assay: Antibacterial activity against methicillin-resistant Staphylococcus aureus assessed as inhibition of bacterial growth; format: functional
[24] = tested on: Mycobacteroides abscessus; assay: Antibacterial activity against Mycobacterium abscessus assessed as inhibition of bacterial growth; format: functional
[25] = tested on: Mycobacterium tuberculosis; assay: Antibacterial activity against Mycobacterium tuberculosis clinical isolate K16 assessed as inhibition of bacterial growth incubated for 6 days by microplate alamar blue assay; format: functional; conditions: K16, 144 h, time 6 day
[26] = tested on: Mycobacterium tuberculosis; assay: Antibacterial activity against Mycobacterium tuberculosis clinical isolate K4 assessed as inhibition of bacterial growth incubated for 6 days by microplate alamar blue assay; format: functional; conditions: K4, 144 h, time 6 day
[27] = biological target: T3, Serine/threonine-protein kinase PknB (Mycobacterium tuberculosis, UniProt P9WI81); assay: Binding affinity to Mycobacterium tuberculosis PknB assessed as dissociation constant at 600 uM by ITC analysis
T3 sequence (P9WI81 whole entry): T1 sequence (whole entry)

[28] = tested on: Mycolicibacterium smegmatis; assay: Antibacterial activity against Mycobacterium smegmatis assessed as inhibition of bacterial growth; format: functional
[29] = Toxicity in BALB/c mouse assessed as histopathological changes in kidney at 800 mg/kg, po measured at 14 days by H and E staining based analysis; format: organism-based; conditions: in vivo, 336 h, time 14 day
[30] = tested on: Mycobacterium tuberculosis; assay: Antitubercular activity against autoluminescent Mycobacterium tuberculosis H37Ra infected in BALB/c mouse assessed as reduction in relative light unit at 300 mg/kg, po administered once daily by oral gavage for 5 days and measured every 2 days by luminometer based analysis; format: functional; conditions: time 5 day
[31] = Oral bioavailability in Sprague-Dawley rat at 15 mg/kg measured for 24 hrs by LC-MS analysis; format: ADME, organism-based; conditions: in vivo

Cc1cc(Nc2nc(-c3ccccc3)ncc2Cl)c(OC(C)C)cc1C1CCNCC1
Activity [1]: Toxic | deltaG [2]: -3.1 kcal/mol | CLz/F [3]: 25 mL/min/kg | MIC (Escherichia coli): > 16 µg/mL | inhibition [4]: 7.1% | MIC [5]: 0.5 µg/mL (≈ 1.14 µM) | AUC(0-t) at 24 h [6]: 2080 ng·h/mL | inhibition [7]: 4.5% | Activity [8]: Toxic | MIC [9]: 0.5 µg/mL (≈ 1.14 µM) | Cmax [10]: 595 ng/mL | Activity [11]: Non-Toxic | AUC(0-t) at 24 h [12]: 1690 ng·h/mL | Activity [13]: Non-Toxic | MIC [14]: 0.5 µg/mL (≈ 1.14 µM) | Cmax [15]: 108 ng/mL | Activity [16]: Toxic | Tmax [17]: > 24 h | Activity [18]: Toxic | half-life [19]: 26.2 h | MIC [20]: 1 µg/mL (≈ 2.29 µM) | IC50 at 48 h [21]: 3.1 µM | ΔTm [22]: -5 °C | Tm [23]: 54 °C | MIC (Staphylococcus aureus): 4 µg/mL (≈ 9.15 µM) | MIC [24]: 4 µg/mL (≈ 9.15 µM) | MIC [25]: 1 µg/mL (≈ 2.29 µM) | MIC [26]: 0.5 µg/mL (≈ 1.14 µM) | Kd [27]: 9.4 µM | MIC [28]: 4 µg/mL (≈ 9.15 µM) | Activity [29]: Toxic | Activity [30]: 0.5 log10RLU | bioavailability [31]: 40.7%

From ChEMBL document CHEMBL5380793, “Structure-Activity Relationship of Novel Pyrimidine Derivatives with Potent Inhibitory Activities against Mycobacterium tuberculosis” (J Med Chem, 2023)
